Read-outs that look alike come from different tables or passages of the source.
Columns and labels:
[1] = molecular target: human plasma kallikrein (Homo sapiens, UniProt P03952); assay: Kallikrein inhibition assay (FLINT) utilizing a quenched AMC peptide substrate Z-Gly-Pro-Arg-AMC; format: biochemical; settings: kinetic (KIN) reads, read-out: Kallikrein KIN Inh IC50
Summary of the method: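 IC50 from a 4-parameter logistic fit of % inhibition from 11 concentrations (3-fold, top 1 μM, 2% DMSO). Compound pre-incubated 30 min with 2 nM enzyme in Tris pH 7.5, NaCl, CaCl2, BSA, CHAPS, then 50 μM AMC peptide substrate added. Fluorescence (340/440 nm) followed every 5 min for 30 min at room temperature.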

[2] = molecular target: Factor XIa (Homo sapiens, UniProt P03951); assay: Factor XIa inhibition assay (FLINT) utilizing a fluorophore-quencher pair peptide substrate 5Fam-[…]-K5Tamra; format: biochemical; settings: kinetic (KIN) reads, read-out: FXIa KIN Inh IC50
Summary of the method: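 Compounds were tested as 11-point 3-fold dilutions from 100 nM (2% DMSO). They were preincubated 30 min with FXIa in 50 mM Tris pH 7.5, 5 mM CaCl2, then 15 μM fluorophore-quencher peptide was added. Cleavage was followed at 485/520 nm over 30 min, and IC50 was derived by 4-parameter logistic fit.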

human plasma kallikrein, sequence (P03952 391-638 limits assumed): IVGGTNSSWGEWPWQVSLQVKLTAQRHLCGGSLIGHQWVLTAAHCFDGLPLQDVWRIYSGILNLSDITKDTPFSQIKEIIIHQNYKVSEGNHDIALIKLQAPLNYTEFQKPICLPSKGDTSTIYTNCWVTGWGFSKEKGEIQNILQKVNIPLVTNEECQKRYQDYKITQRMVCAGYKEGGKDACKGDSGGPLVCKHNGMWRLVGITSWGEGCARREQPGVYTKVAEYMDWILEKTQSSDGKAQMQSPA
human plasma kallikrein, sequence (P03952 20-390 partner limits assumed): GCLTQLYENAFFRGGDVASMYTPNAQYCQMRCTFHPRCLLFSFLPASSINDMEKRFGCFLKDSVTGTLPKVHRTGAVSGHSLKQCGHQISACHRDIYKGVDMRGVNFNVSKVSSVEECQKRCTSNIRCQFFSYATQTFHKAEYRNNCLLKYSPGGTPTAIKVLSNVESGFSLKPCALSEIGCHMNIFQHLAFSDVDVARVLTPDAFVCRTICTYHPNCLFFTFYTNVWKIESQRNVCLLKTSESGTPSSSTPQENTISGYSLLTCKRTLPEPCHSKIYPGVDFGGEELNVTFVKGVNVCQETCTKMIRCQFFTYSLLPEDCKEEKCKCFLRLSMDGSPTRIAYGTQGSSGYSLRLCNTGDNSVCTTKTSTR
Factor XIa, sequence (P03951 388-625 limits assumed): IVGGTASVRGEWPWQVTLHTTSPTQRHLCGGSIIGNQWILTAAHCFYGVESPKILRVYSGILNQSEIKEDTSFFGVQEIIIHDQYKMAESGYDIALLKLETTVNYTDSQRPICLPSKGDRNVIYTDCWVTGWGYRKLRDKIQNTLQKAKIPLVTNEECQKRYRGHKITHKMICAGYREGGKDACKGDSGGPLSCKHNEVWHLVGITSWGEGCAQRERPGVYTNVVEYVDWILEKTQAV
Factor XIa, sequence (P03951 19-387 partner limits assumed): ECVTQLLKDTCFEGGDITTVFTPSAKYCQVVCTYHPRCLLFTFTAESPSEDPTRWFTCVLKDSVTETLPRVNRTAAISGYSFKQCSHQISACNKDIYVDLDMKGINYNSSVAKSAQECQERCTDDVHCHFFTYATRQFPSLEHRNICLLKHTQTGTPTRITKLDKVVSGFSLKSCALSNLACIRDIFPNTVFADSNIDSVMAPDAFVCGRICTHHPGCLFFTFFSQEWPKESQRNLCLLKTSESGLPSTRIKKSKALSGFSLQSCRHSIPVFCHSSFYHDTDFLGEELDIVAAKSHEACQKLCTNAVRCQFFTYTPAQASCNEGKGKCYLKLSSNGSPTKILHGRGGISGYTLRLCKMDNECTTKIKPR

SMILES: C[C@@H]1C[C@@H](c2ncc(-c3ccc(N)nc3F)[nH]2)n2c1cc(-c1c(-n3cnnn3)ccc(Cl)c1F)cc2=O [Example 66, (1R,3S)-3-(5-(6-Amino-2-fluoropyridin-3-yl)-1H-imidazol-2-yl)-7-(3-chloro-2-fluoro-6-(1H-tetrazol-1-yl)phenyl)-1-methyl-2,3-dihydroindolizin-5(1H)-one]
- IC50 ([1]; values in nM): 3.6 nM
- IC50 ([2]; values in nM): 0.4 nM

SMILES: C[C@H]1C[C@H](c2ncc(-c3ccc(N)nc3Cl)[nH]2)n2c1cc(-c1c(-n3cnnn3)ccc(Cl)c1F)cc2=O (relative stereo) [Example 37, (1*S,3*R)-3-(5-(6-Amino-2-chloropyridin-3-yl)-1H-imidazol-2-yl)-7-(3-chloro-2-fluoro-6-(1H-tetrazol-1-yl)phenyl)-1-methyl-2,3-dihydroindolizin-5(1H)-one]
- IC50 ([1]; unit μM): 7800 nM
- IC50 ([2]; values in nM): 283 nM

SMILES: CC(C)(O)COc1nccc(-c2cnc(C3CC4(CC4)c4nc(-c5c(-n6cnnn6)ccc(Cl)c5F)cc(=O)n43)[nH]2)c1F (single isomer, unassigned) [Example 70, (R*)-2′-(3-Chloro-2-fluoro-6-(1H-tetrazol-1-yl)phenyl)-6′-(5-(3-fluoro-2-(2-hydroxy-2-methylpropoxy)pyridin-4-yl)-1H-imidazol-2-yl)-6′,7′-dihydro-4′H-spiro[cyclopropane-1,8′-pyrrolo[1,2-a]pyrimidin]-4′-one]
- IC50 ([1]; values in nM): 42.9 nM
- IC50 ([2]; values in nM): 7.3 nM

SMILES: C[C@H]1C[C@@H](c2ncc(-c3ccc(NS(C)(=O)=O)cc3)[nH]2)n2c1cc(-c1c(-n3cnnn3)ccc(Cl)c1F)cc2=O [Example 11, N-(4-(2-((1S,3S)-7-(3-chloro-2-fluoro-6-(1H-tetrazol-1-yl)phenyl)-1-methyl-5-oxo-1,2,3,5-tetrahydroindolizin-3-yl)-1H-imidazol-5-yl)phenyl)methanesulfonamide]
- IC50 ([1]; values in nM): 11.4 nM
- IC50 ([2]; values in nM): 2.2 nM

SMILES: COC(=O)Nc1ccc(-c2cnc([C@@H]3C[C@H](C)c4cc(-c5c(-n6cnnn6)ccc(Cl)c5F)cc(=O)n43)[nH]2)cc1 (relative stereo) [Example 64, Methyl(4-(2-((1*S,3*S)-7-(3-chloro-2-fluoro-6-(1H-tetrazol-1-yl)phenyl)-1-methyl-5-oxo-1,2,3,5-tetrahydroindolizin-3-yl)-1H-imidazol-5-yl)phenyl)carbamate]
- IC50 ([1]; unit μM): 5400 nM
- IC50 ([2]; unit μM): 1700 nM

SMILES: C[C@H]1C[C@@H](c2ncc(-c3cnc(N)nc3)[nH]2)n2c1nc(-c1c(-n3cnnn3)ccc(Cl)c1F)cc2=O (stereo in doubt) [Example 119, (6*S,8*S)-6-(5-(2-Aminopyrimidin-5-yl)-1H-imidazol-2-yl)-2-(3-chloro-2-fluoro-6-(1H-tetrazol-1-yl)phenyl)-8-methyl-7,8-dihydropyrrolo[1,2-a]pyrimidin-4(6H)-one]
- IC50 ([1]; values in nM): 287 nM
- IC50 ([2]; values in nM): 8.7 nM

SMILES: C[C@H]1C[C@@H](c2ncc(-c3cnc(N)c(F)c3)[nH]2)n2c1cc(-c1c(-n3cnnn3)ccc(Cl)c1F)cc2=O (relative stereo) [Example 61, (1*S,3*S)-3-(5-(6-Amino-5-fluoropyridin-3-yl)-1H-imidazol-2-yl)-7-(3-chloro-2-fluoro-6-(1H-tetrazol-1-yl)phenyl)-1-methyl-2,3-dihydroindolizin-5(1H)-one]
- IC50 ([1]; unit μM): > 10000 nM
- IC50 ([2]; unit μM): > 10000 nM

SMILES: C[C@H]1C[C@@H](c2ncc(-c3cc4c(cn3)NC(=O)CC4)[nH]2)n2c1cc(-c1c(-n3cnnn3)ccc(Cl)c1F)cc2=O (single isomer, unassigned) [Example 9, 6-(2-((1*S,3*S)-7-(3-Chloro-2-fluoro-6-(1H-tetrazol-1-yl)phenyl)-1-methyl-5-oxo-1,2,3,5-tetrahydroindolizin-3-yl)-1H-imidazol-5-yl)-3,4-dihydro-1,7-naphthyridin-2(1H)-one]
- IC50 ([1]; values in nM): ~21.4 nM
- IC50 ([2]; values in nM): 6.9 nM

SMILES: C[C@H]1C[C@@H](c2ncc(-c3cnnn3C)[nH]2)n2c1cc(-c1c(-n3cnnn3)ccc(Cl)c1F)cc2=O [Example 28, (1S,3S)-7-(3-Chloro-2-fluoro-6-(1H-tetrazol-1-yl)phenyl)-1-methyl-3-(5-(1-methyl-1H-1,2,3-triazol-5-yl)-1H-Imidazol-2-yl)-2,3-dihydroindolizin-5(1H)-one]
- IC50 ([1]; unit μM): 6400 nM
- IC50 ([2]; values in nM): 311 nM

SMILES: C[C@H]1C[C@@H](c2ncc(-c3ccnc(F)c3)[nH]2)n2c1cc(-c1c(-n3cnnn3)ccc(Cl)c1F)cc2=O (stereo in doubt) [Example 44, (1*S,3*S)-7-(3-Chloro-2-fluoro-6-(1H-tetrazol-1-yl)phenyl)-3-(5-(2-fluoropyridin-4-yl)-1H-imidazol-2-yl)-1-methyl-2,3-dihydroindolizin-5(1H)-one]
- IC50 ([1]; values in nM): 97.8 nM
- IC50 ([2]; values in nM): 14.9 nM

SMILES: C[C@H]1CC(c2nc(F)c(-c3ccc(N)nc3)[nH]2)n2c1cc(-c1c(-n3cnnn3)ccc(Cl)c1F)cc2=O (stereo in doubt) [Example 40, (1*S,3*S)-3-(5-(6-Aminopyridin-3-yl)-4-fluoro-1H-imidazol-2-yl)-7-(3-chloro-2-fluoro-6-(1H-tetrazol-1-yl)phenyl)-1-methyl-2,3-dihydroindolizin-5(1H)-one]
- IC50 ([1]; unit μM): 6400 nM
- IC50 ([2]; values in nM): 286 nM

SMILES: Nc1ccc(-c2cnc([C@@H]3CC4(CC4)c4nc(-c5c(-n6cnnn6)ccc(Cl)c5F)cc(=O)n43)[nH]2)c(F)n1 [Example 134, (S)-6′-(5-(6-Amino-2-fluoropyridin-3-yl)-1H-imidazol-2-yl)-2′-(3-chloro-2-fluoro-6-(1H-tetrazol-1-yl)phenyl)-6′,7′-dihydro-4′H-spiro[cyclopropane-1,8′-pyrrolo[1,2-a]pyrimidin]-4′-one]
- IC50 ([1]; values in nM): 16.8 nM
- IC50 ([2]; values in nM): 1.2 nM

SMILES: Nc1ccc(-c2cnc(C3CCCCc4cc(-c5c(-n6cnnn6)ccc(Cl)c5F)cc(=O)n43)[nH]2)c(F)n1 (stereo not drawn) [Cmpd (IV), 6-(5-(6-amino-2-fluoropyridin-3-yl)-1H-imidazol-2-yl)-2-(3-chloro-2-fluoro-6-(1H-tetrazol-1-yl)phenyl)-7,8,9,10-tetrahydropyrido[1,2-a]azepin-4(6H)-one]
- IC50 ([1]; values in nM): 160 nM
- IC50 ([2]; values in nM): 48 nM

SMILES: CCO[C@@H]1C[C@@H](c2ncc(-c3ccc(N)nc3F)[nH]2)n2c1cc(-c1c(-n3cnnn3)ccc(Cl)c1F)cc2=O [Example 139, (1R,3S)-3-(5-(6-Amino-2-fluoropyridin-3-yl)-1H-imidazol-2-yl)-7-(3-chloro-2-fluoro-6-(1H-tetrazol-1-yl)phenyl)-1-ethoxy-2,3-dihydroindolizin-5(1H)-one]
- IC50 ([1]; values in nM): 18 nM
- IC50 ([2]; values in nM): 0.3 nM

SMILES: C[C@@H]1C[C@H](c2ncc(-c3ccc4nn(C)cc4c3)[nH]2)n2c1cc(-c1c(-n3cnnn3)ccc(Cl)c1F)cc2=O (stereo in doubt) [Example 47, (1*R,3*R)-7-(3-Chloro-2-fluoro-6-(1H-tetrazol-1-yl)phenyl)-1-methyl-3-(5-(2-methyl-2H-indazol-5-yl)-1H-imidazol-2-yl)-2,3-dihydroindolizin-5(1H)-one]
- IC50 ([1]; values in nM): 21.7 nM
- IC50 ([2]; values in nM): 23.7 nM

SMILES: Nc1ccc(-c2cnc([C@@H]3CC4(CC4)c4cc(-c5c(-n6cnnn6)ccc(Cl)c5F)cc(=O)n43)[nH]2)c(F)n1 [Example 25, (S)-3′-(5-(6-Amino-2-fluoropyridin-3-yl)-1H-imidazol-2-yl)-7′-(3-chloro-2-fluoro-6-(1H-tetrazol-1-yl)phenyl)-2′,3′-dihydro-5′H-spiro[cyclopropane-1,1′-indolizin]-5′-one]
- IC50 ([1]; values in nM): 14.1 nM
- IC50 ([2]; values in nM): 0.6 nM

SMILES: C[C@H]1C[C@H](c2ncc(-c3ccc(N)nc3Cl)[nH]2)n2c1nc(-c1c(-n3cnnn3)ccc(Cl)c1F)cc2=O [Example 141]
- IC50 ([1]; values in nM): 13.5 nM
- IC50 ([2]; values in nM): 0.5 nM

SMILES: C[C@H]1C[C@@H](c2ncc(-c3cc(N)nn3C)[nH]2)n2c1cc(-c1c(-n3cnnn3)ccc(Cl)c1F)cc2=O [Example 15, (1S,3S)-3-(5-(3-Amino-1-methyl-1H-pyrazol-5-yl)-1H-imidazol-2-yl)-7-(3-chloro-2-fluoro-6-(1H-tetrazol-1-yl)phenyl)-1-methyl-2,3-dihydroindolizin-5(1H)-one]
- IC50 ([1]; unit μM): 3200 nM
- IC50 ([2]; values in nM): 165 nM

SMILES: [2H]C([2H])([2H])OC(=O)Nc1ccc(-c2cnc(C3CC4(CC4)c4nc(-c5c(-n6cnnn6)ccc(Cl)c5F)cc(=O)n43)[nH]2)cc1 (single isomer, unassigned) [Example 71, Methyl-d3 (R*)-(4-(2-(2′-(3-Chloro-2-fluoro-6-(1H-tetrazol-1-yl)phenyl)-4′-oxo-6′,7′-dihydro-4′H-spiro[cyclopropane-1,8′-pyrrolo[1,2-a]pyrimidin]-6′-yl)-1H-imidazol-5-yl)phenyl)carbamate]
- IC50 ([1]; values in nM): 736 nM
- IC50 ([2]; values in nM): > 100 nM

SMILES: C[C@H]1C[C@@H](c2ncc(-c3ccnc(N)c3F)[nH]2)n2c1nc(-c1c(-n3cnnn3)ccc(Cl)c1F)cc2=O (relative stereo) [Example 88, (6*S,8*S)-6-(5-(2-Amino-3-fluoropyridin-4-yl)-1H-imidazol-2-yl)-2-(3-chloro-2-fluoro-6-(1H-tetrazol-1-yl)phenyl)-8-methyl-7,8-dihydropyrrolo[1,2-a]pyrimidin-4(6H)-one]
- IC50 ([1]; values in nM): 14.5 nM
- IC50 ([2]; values in nM): 2.6 nM

SMILES: C[C@@H]1C[C@H](c2ncc(-c3cnc(N)nc3)[nH]2)n2c1nc(-c1c(-n3cnnn3)ccc(Cl)c1F)cc2=O (stereo in doubt) [Example 114, (6*R,8*R)-6-(5-(2-Aminopyrimidin-5-yl)-1H-imidazol-2-yl)-2-(3-chloro-2-fluoro-6-(1H-tetrazol-1-yl)phenyl)-8-methyl-7,8-dihydropyrrolo[1,2-a]pyrimidin-4(6H)-one]
- IC50 ([1]; values in nM): 284 nM
- IC50 ([2]; values in nM): 111 nM
